Key:
a-synuclein = target: T1, a-synuclein (Homo sapiens, UniProt P37840); test: a-synuclein degradation in HEK293 cells (western blot); type: cell-based; settings: a-synuclein transfection 48 h, dosed 3 h at 25 μM with 50 μM cycloheximide, compared to DMSO and MO
T1 construct: expressed in transfected cells; host or cells: HEK293
Protocol: After a-synuclein transfection for 48 h, the compounds were dosed for 3 h at 25 μM together with 50 μM cycloheximide, and the total a-synuclein was determined using western blot. DMSO samples were used as control (dashed line).
FIGS. 2 to 4 show the results of the functional assay for the compounds of group I, FIG. 2 based on proteasome stimulation in vitro. The biochemical assay was performed with a purified human 20S proteasome. The compounds were incubated with 20S proteasomes for 1 h, and the proteasome activity was measured with a TAS-1 probe. DMSO samples were used as control. […] The inventive compounds are better stimulators than the activator alone (MO), especially when they have a longer linker, e.g. (PEG)4-5.

tau = tau degradation in HEK293 cells (western blot); type: cell-based; settings: tau transfection 48 h, dosed 16 h at 25 μM with 30 μM cycloheximide, DMSO control
Protocol: After tau transfection for 48 h, the compounds were dosed for 16 h at 25 μM together with 30 μM cycloheximide, and total tau was determined (western blot). DMSO samples were used as control (dashed line).
The biochemical assay was performed with a purified human 20S proteasome. The compounds were incubated with 20S proteasomes for 1 h, and the proteasome activity was measured with a TAS-1 probe. DMSO samples were used as control (dashed line). The inventive compounds are better stimulators than the activator alone (MO), especially when they have a longer linker, e.g., (PEG)4-5. […] For proteasome activity in HEK293 cells, the compounds were dosed for 1.5 h, and the proteasome activity measured with Me4BodipyFLAhx3L3VS activity probe. DMSO samples were used as control (dashed line). […] Compounds were dosed for 24 h, and the viability measured with CellTiter-Glo. DMSO samples were used as control (dashed line). […] After tau transfection for 48 h, the compounds were dosed for 16 h at 25 μM together with 30 μM cycloheximide, and total tau was determined (western blot). DMSO samples were used as control (dashed line).

| Structure (SMILES) | a-synuclein degradation (total a-synuclein) (a-synuclein) | tau degradation (total tau) (tau) |
| --- | --- | --- |
| CNc1ccc(-c2nc3ccc(OCCOCCNC(=O)c4ccc(COC(Cn5ccnc5)c5ccc(Cl)cc5Cl)cc4)cc3s2)cc1 (stereo not drawn) [DS001, 4-((1-(2,4-dichlorophenyl)-2-(1H-imidazol-1-yl)ethoxy)methyl)-N-(2-(2-((2-(4-(methylamino)phenyl)benzo[d]thiazol-6-yl)oxy)ethoxy)ethyl)benzamide] | clear improvement in degrading a-synuclein |  |
| O=C(CCc1ccc2c(c1)[nH]c1ccncc12)NCCOCCNC(=O)c1ccc(COC(Cn2ccnc2)c2ccc(Cl)cc2Cl)cc1 (stereo not drawn) [DT-001, N-(2-(2-(3-(5H-pyrido[4,3-b]indol-7-yl)propanamido)ethoxy)ethyl)-4-((1-(2,4-dichlorophenyl)-2-(1H-imidazol-1-yl)ethoxy)methyl)benzamide] |  | clear tau degradation improvement |
| CNc1ccc(-c2nc3ccc(OCCOCCOCCOCCNC(=O)c4ccc(COC(Cn5ccnc5)c5ccc(Cl)cc5Cl)cc4)cc3s2)cc1 (stereo not drawn) [DS003, 4-((1-(2,4-dichlorophenyl)-2-(1H-imidazol-1-yl)ethoxy)methyl)-N-(2-(2-(2-(2-((2-(4-(methylamino)phenyl)benzo[d]thiazol-6-yl)oxy)ethoxy)ethoxy)ethoxy)ethyl)benzamide] | clear improvement in degrading a-synuclein |  |

Reference: patent publication US20250121068A1, “BIFUNCTIONAL MOLECULES AS PROTEASOME STIMULATORS FOR IMPROVED TARGETED PROTEIN DEGRADATION, AND THEIR USES AS TARGETED BOOSTING DEGRADERS (TARBODS)” (BOOSTER THERAPEUTICS GMBH, priority 2021, published 2025)
